Entries after “also recorded” stand apart in the source; their conditions may differ. Structures can show the parent of a compound that is named as a salt. Where two headings read alike, the source gives them in different places.
Key:
[1] = biological target: T1, EAAT1 (JumpIn-EAAT1 cells) (Homo sapiens, UniProt P43003); test: Impedance-based phenotypic assay (xCELLigence) on JumpIn-EAAT1 cells; format: cell-based; conditions: net AUC 0–120 min
T1 construct: expressed in transfected cells; host or cells: Jump In T-REx HEK 293
T1 sequence (P43003 whole entry): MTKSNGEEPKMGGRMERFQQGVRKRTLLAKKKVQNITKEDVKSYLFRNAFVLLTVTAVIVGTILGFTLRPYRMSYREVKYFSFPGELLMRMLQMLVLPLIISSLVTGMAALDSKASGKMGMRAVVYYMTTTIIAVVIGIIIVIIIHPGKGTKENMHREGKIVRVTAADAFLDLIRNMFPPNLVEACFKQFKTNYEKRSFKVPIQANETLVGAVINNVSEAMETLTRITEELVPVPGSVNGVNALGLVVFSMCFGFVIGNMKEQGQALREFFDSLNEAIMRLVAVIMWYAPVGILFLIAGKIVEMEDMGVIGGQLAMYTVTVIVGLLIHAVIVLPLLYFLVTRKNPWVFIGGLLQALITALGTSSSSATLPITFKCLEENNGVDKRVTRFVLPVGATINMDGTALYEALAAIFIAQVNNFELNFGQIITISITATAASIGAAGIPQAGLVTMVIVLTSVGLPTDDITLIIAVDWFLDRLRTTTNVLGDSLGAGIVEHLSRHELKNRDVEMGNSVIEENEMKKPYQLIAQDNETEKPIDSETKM
Experimental: (§1) In short, cells are cultured in medium on gold-plated electrodes in microwell E-plates.
(§2) Assays were performed at 37°C and 5% CO2 in 96-well PET E-plates in a total volume of 100 µl per well. Prior to cell seeding, the baseline impedance (Z0) was measured in the recording station in 40 µl (two compound additions) or 45 µl (one compound addition) medium in the presence (+) or absence (−) of 1 μg/ml dox. All compounds were diluted in phosphate-buffered saline (PBS) and added in 5 µl per addition using a VIAFLO 96 handheld electronic 96 channel pipette (INTEGRA Biosciences, Tokyo, Japan). When DMSO was used as a solvent for a compound, the final amount of DMSO was kept at 0.1% per well and was included in the vehicle (PBS/DMSO). All conditions were tested at two technical replicates per plate.
(§3) Transiently transfected JumpIn-EAAT1 cells were detached using only PBS/EDTA. The E-plate was left to rest at room temperature for 30 min prior to replacement in the recording station at 37°C and 5% CO2. Cell growth was recorded overnight for 22 h. If a pretreatment was required for the experiment, the cells were pretreated after 22 h with either a concentration of inhibitor or vehicle (PBS/DMSO) and cells were monitored for 60 min. For GPCR antagonist experiments, a maximum concentration of LY341495 (1 µM) was used. […] After the pretreatment, cells were stimulated with substrate or vehicle (PBS). […] After stimulation the impedance was measured for at least 2 h. […] Properly washed plates were re-used up to two times.
(§4) Experimental data was recorded using RTCA Software v2.0 or v2.1.1 (ACEA Biosciences). In the RTCA Software CI values were normalized to the time point prior to substrate/agonist stimulation resulting in normalized Cell Index (nCI) values. The nCI data were exported and subsequent analyses and data visualizations were done using GraphPad Prism v9 (GraphPad Software, San Diego, CA, United States). In all experiments, nCI values of vehicle-only conditions were subtracted from all other conditions to correct for vehicle-induced, substrate-independent effects. […] The potency values of substrates and inhibitory potencies of EAAT inhibitors were determined by fitting the net AUC data to a sigmoidal concentration-effect curve with a variable slope.

JumpIn-EAAT1 cells = test: Targeted metabolomics (LC-MS/MS) of intracellular metabolite levels; format: cell-based, human; conditions: 1 mM substrate, 2 h
Experimental: JumpIn-EAAT1 cells were plated at 150,000 cells/well in 24 well poly-L-lysine coated plates in culture medium in the absence (−dox) or presence (+dox) of 1 μg/ml doxycycline and grown at 37°C and 5% CO2. After 24 h, the medium was refreshed and cells were pretreated with vehicle (PBS/DMSO) or 10 µM TFB-TBOA. […] For lysis, cells were first gently washed with room temperature bicarbonate buffer (91 mM NH4HCO3, pH 7.4). […] The cells were then scraped and transferred to a pre-cooled Eppendorf tube and immediately snap frozen in liquid nitrogen. Samples were thawed on ice before being centrifuged at 16,000 × g for 10 min at 4°C. The clarified metabolite-containing supernatants were moved into a high-performance liquid chromatography vial and stored at −80°C until LC-MS/MS analysis.
Cell extracts were dried using a nitrogen evaporator. The dry residue was reconstituted in 16 µl H2O and 4 µl of sample extract was used for LC-MS/MS analysis. […] The column was maintained at a temperature of 40°C and 4 µl of sample was injected per run. The mobile phase A was 3% MeOH (v/v), 10 mM tributylamine, 15 mM acetic acid in H2O, and mobile phase B was 10 mM tributylamine, 15 mM acetic acid in MeOH. The gradient elution with a flow rate 0.25 mL/min was performed for a total time of 24 min. […] The metabolites of interest were detected using a dynamic Multiple Reaction Monitoring (MRM) mode. The MassHunter 10.0 software (Agilent Technologies) was used for the data processing. Ten-point linear calibration curves with internal standardization were constructed for the quantification of metabolites.
Volcano plots were generated to visualize the significant up- or downregulation of intracellular metabolite concentrations. The log2 fold change upon substrate addition is plotted against the −log10 adjusted p-value.

EAAT1-3 = conditions: read-out: Steady-state affinities (Km), ref Arriza et al., 1994, Tzingounis and Wadiche, 2007; cited from earlier work
[2] = biological target: T2, EAAT1 (JumpIn-EAAT1-mock cells) (Homo sapiens, UniProt P43003); test: Impedance-based TRACT assay (xCELLigence) on mock-transfected JumpIn-EAAT1 cells; format: cell-based; conditions: no inhibitor
T2 construct: expressed in transfected cells; host or cells: Jump In T-REx HEK 293
T2 sequence (P43003 whole entry, the tested form may be a part): as the sequence (P43003 whole entry) above
Experimental: as §1, §2, §3
as §4, with “States).” for “States). In all experiments, nCI values of vehicle-only conditions were subtracted from all other conditions to correct for vehicle-induced, substrate-independent effects.”

With `N[C@@H](CCC(=O)O)C(=O)O` [L-glutamate, L-glutamic acid monosodium salt monohydrate] the “Substrate pEC50 ± SEM” value ([1]; JumpIn-EAAT1, +dox) was 3.4 ± 0.0, the EC50 ([1]; JumpIn-EAAT1, −dox, read-out: Substrate pEC50 ± SEM (converted)) was 63.1 µM and the “Intracellular cAMP levels” value (JumpIn-EAAT1 cells) was “significant elevations”. For the same molecule, the Intracellular glutamine level (JumpIn-EAAT1 cells) was “not significantly altered”, the “Levels of TCA cycle intermediates and related metabolites” value (JumpIn-EAAT1 cells) was “increased” and the “Increase of intracellular aspartate” value (JumpIn-EAAT1 cells; +dox) was 5 fold. For the same molecule, the “Increase of intracellular glutamate” value (JumpIn-EAAT1 cells; +dox) was 5 fold, the Intracellular taurine level (JumpIn-EAAT1 cells; +dox) was “significantly reduced; also recorded: significant decrease” and the Km (EAAT1-3) was ~20 µM. The EC50 ([2]; +dox, net AUC 0–15 min, read-out: Substrate pEC50 ± SEM (AUC = 0–15 min) (converted)) was > 1000 µM, the EC50 ([2]; +dox, net AUC 0–120 min, read-out: Substrate pEC50 ± SEM (AUC = 0–120 min) (converted)) was 316 µM and the EC50 ([2]; Substrate pEC50 ± SEM (AUC = 0–120 min), −dox, net AUC 0–120 min) was 100 µM.

Reference: publication PMC9169222, “Impedance-Based Phenotypic Readout of Transporter Function: A Case for Glutamate Transporters” (Frontiers in Pharmacology, 2022)
